Measurements published in patent publication EP0367189A2, “Sugar phosphates and sulfonates of epipodophyllotoxin glucosides” (Bristol-Myers Squibb Company, priority 1988, dated 1990).
Values after ≈ are worked out from the molar mass of the structure shown.

Assays:
P388 leukemia = test: Antitumor activity against murine transplantable P388 leukemia (survival); assay type: in vivo, CDF₁ mice; settings: maximum % T/C only, at the dose giving the maximum effect (dose column of Table I); single intraperitoneal dose on day 1; observed 45 days; 10⁶ P388 cells ip; % T/C of 125 or greater = significant
Method: Representative compounds of the present invention were evalnated for anti tumor activity against murine transplantable P388 leukemia. Five-week old female CDF₁ mice were inoculated intraperitoneally with 0.4 ml of diluted ascitic fluid containing 10⁶ lymphocytic leukemia P388 cells. […] The percent increase of median survival time (MST) of treated animals over that of untreated control animals was determined and reported as % T/C. Compounds showing % T/C values of 125 or greater are considered to have significant antitumor activity. Table I presents the results of the in vivo evaluation; only the maximum % T/C and the dose giving the maximum effects are reported.

B16 melanoma cells = test: In vitro cytotoxicity against B16 melanoma cells (neutral red staining); assay type: cell-based; settings: 72 hours at 37°C, colorimetric at 540 nm, IC₅₀ higher than 100 µg/ml = lack of cytotoxic activity
Method: Cytotoxicity of compounds of the present invention was studied using B16 melanoma cells. B16 melanoma cells were grown to the logarithmic phase in the enriched Eagle minimum essential medium supplemented with fetal calf serum (10%) and kanamycin (60 mcg/ml). The tumor cells were harvested and implanted into wells of the 96-well microtiter plate with test materials at the inoculum size of 3.0 x 10⁴ cells/ml. They were incubated at 37°C in humidified atmosphere of 5% CO₂ and 95% air for 72 hours. The cytotoxic activity against the above cell line was determined colorimetrically at 540 nm after staining viable cells with neutral red and is reported in terms of the concentration that inhibits 50% of cell growth (IC₅₀). IC₅₀ values of higher than 100 µg/ml are generally considered as indicating lack of cytotoxic activity.

[1] = target: T1, prostatic acid phosphatase (Homo sapiens, UniProt P15309); settings: Seligman et al, Cancer Chemotherapy Reports Part I, 1975; cited from earlier work
T1 sequence (P15309 33-386): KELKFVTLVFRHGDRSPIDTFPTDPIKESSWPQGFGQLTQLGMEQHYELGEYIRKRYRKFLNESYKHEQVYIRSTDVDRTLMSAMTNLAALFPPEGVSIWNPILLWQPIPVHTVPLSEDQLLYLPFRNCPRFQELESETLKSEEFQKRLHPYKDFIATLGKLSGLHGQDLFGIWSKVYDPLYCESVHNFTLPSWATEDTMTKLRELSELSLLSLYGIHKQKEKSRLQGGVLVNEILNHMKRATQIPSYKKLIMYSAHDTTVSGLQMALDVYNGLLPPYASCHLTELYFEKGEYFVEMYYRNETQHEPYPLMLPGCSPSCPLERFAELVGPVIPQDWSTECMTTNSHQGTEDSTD

[2] = Seligman et al, Cancer Chemotherapy Reports Part I, 1975; cited from earlier work

Row | Molecule | %T/C of MST (P388 leukemia) | IC50 (B16 melanoma cells; Mus musculus) | IC₅₀ (B16 melanoma cells) | hydrolysis by prostatic acid phosphatase [1] | toxicity over the parent podophyllotoxin [2]
1 | COc1cc([C@@H]2c3cc4c(cc3[C@@H](O[C@@H]3O[C@@H]5CO[C@@H](C)O[C@H]5[C@H](O)[C@H]3O)[C@H]3COC(=O)[C@H]23)OCO4)cc(OC)c1O [Etoposide, etoposide, reference compound] | 250% | 0.21 µg/mL (≈ 0.357 µM) |  |  | 
2 | disodium etoposide 2˝ -phosphate [Compound XII] | 120% |  | 20 µg/mL |  | 
3 | disodium etoposide 3˝-phosphate [Compound XI] | 185% |  | 2.2 µg/mL |  | 
4 | etoposide 2˝,3˝-ditosylate [Compound XIX] | 100% |  | 30 µg/mL |  | 
5 | etoposide 2˝-mesylate [Compound XXIV] | 130% |  | 29 µg/mL |  | 
6 | etoposide 2˝-tosylate [Compound XVIII] | 115% |  | 5.4 µg/mL |  | 
7 | etoposide 3˝-diphenyl phosphate [XXVI] | 130% |  | 8.0 µg/mL |  | 
8 | etoposide 3˝-mesylate [Compound XXIII] | 175% |  | 0.32 µg/mL |  | 
9 | etoposide 3˝-tosylate [Compound XVII] | 195% |  | 0.07 µg/mL |  | 
10 | podophyllotoxin phosphate disodium salt |  |  |  | not hydrolyzed | did not show reduced toxicity
11 | sodium bis(etoposide-3˝-)phosphate [Compound XIII] | 125% |  | 37 µg/mL |  | 
